The test system of data set [1] is HL-60 (human promyelocytic leukemia cell line). The settings on record: 48 h.
Method: (§1) HL-60 (human promyelocytic leukemia cell line) and Vero (African green monkey kidney) cell lines from American Type Culture Collection (ATCC-LGC) were each grown in Dulbecco’s modified Eagle’s medium (DMEM) with 4.5 g/L glucose (Sigma-Aldrich), supplemented with 10% fetal bovine serum (Gibco), 1% of a penicillin–streptomycin mixture (10.000 and 10 mg/mL, respectively), and 200 mM L-glutamine. Cells were maintained at 37 °C in 5% CO2 and 98% humidity.
(§2) Viable cells were assessed using the colorimetric MTT [3-(4,5-dimethylthiazol-2-yl)-2,5-diphenyl tetrazolium bromide reduction assay [49]. A cell suspension (1 × 10^4 /200 μL/well) in log-phase of growth seeded in DMEM, supplemented with 5% fetal bovine serum in microtiter well plates (96 wells, Iwaki, London, UK) were added to compounds predissolved in dimethylsulphoxide (DMSO) at different concentrations. After 48 h of incubation, 20 μL/well of the MTT solution (5 mg/mL in phosphate buffered saline, PBS) were added and plates incubated for 4 h at 37 °C. Subsequently, the medium/MTT solutions were removed carefully by aspiration and replaced with 150 μL/well of DMSO to dissolve the formazan crystals. Absorbance was measured in a microplate reader (Infinite M200, Tecan) at a wavelength of 550 nm. Solvent control cultures were considered 100% and percentage of viable treated cells were plotted against compound concentrations. The 50% cell viability value (IC50) was calculated from the curve. Each experiment was performed at least three times in triplicates. Data are given in arithmetic means ± SD. Selectivity ratio was defined as IC50 value for the tumoral cell line divided by IC50 value for the Vero cell line.
For data set [2] the test system is unchanged. In words: MTT cell viability (antiproliferative) assay, HL-60. The settings on record: Vero (IC50) on HL-60 (IC50).
Method: as §1, §2
Data set [3] concerns Vero (African green monkey kidney) cell line. As to conditions: 48 h.
Method: as §1, §2

As to `CC1=C(CO)C(=O)OC(C(C)C2(O)CCC3C4CC=C5C(O)C=CC(=O)C5(C)C4CCC32C)C1` (stereo not drawn) [Compound 13, 4β,17α,27-trihydroxy-1-oxo-witha-2,5,24-trienolide], the half-inhibitory concentration (IC50) (commonly the concentration that inhibits the measured activity by half) in data set [1] came out at 12.3 ± 0.11 µM; in data set [3], 23.8 ± 0.41 µM. Further, the “SI (selectivity index)” value in data set [2] is on record as 1.9.

For the origin of these results see PMC7731379, “Withanolide-Type Steroids from Withania aristata as Potential Anti-Leukemic Agents” (Molecules, 2020).
